Where two headings read alike, the source gives them in different places.
Experiments:
in vitro [1] = test: in vitro; set-up: species or system HB2, CCD841; settings: human, hek293 cells
in vitro [2] = test: in vitro; set-up: species or system CCD841, HEK293; settings: human, hb2 cells, read-out: HB-2 Cells Viability (%)
in vitro [3] = test: in vitro; set-up: species or system HB2, HEK293; settings: human, ccd841 cells
PCAF = target: T1, PCAF (Homo sapiens, UniProt Q92831); set-up: Intact protein LC/MS covalent labelling, fragments in pools of five, 200 uM each, 4 °C; settings: 24 h, 4 °C, pool of five; 200 µM; covalent
T1 construct: gene KAT2B
Protocol: (§1) Incubations were performed at 200 μM for each compound and 2 μM of protein (10 μM for BSA) for 24 h at 4 °C with moderate shaking. Incubation buffers varied among proteins (PBS pH 7.4 for QSOX1 and BSA; 10 mM HEPES pH 7.5, 0.3 M NaCl, 0.5 mM TCEP for PCAF, UPS8, and NUDT7; […]; 10 mM Na2HPO4 pH 7.5 100 mM NaCl 5 mM β-mercaptoethanol for NV3CP; 20 mM Na phosphate pH 7.5 for NNMT; […]. The reaction was stopped by quenching with formic acid, 0.4% final concentration. Each protein was incubated with the electrophilic library in pools of five compounds per well. The pool’s composition maximized the difference in mass between fragments in the same well. Incubations were performed with each fragment at 200 μM, for 24 h at 4 °C, to allow the screening of proteins that are not stable for long time periods at higher temperatures. Following incubation, we used intact protein [compound left out] chromatography/mass spectrometry (LC/MS) to identify the fragments and quantify their labeling (Figure 3A). […] There was good agreement between the percent of labeling of NUDT7 by 100 random individual compounds and that obtained in pools of five (R^2=0.78; Figure S6 and Data set 2 in the Supporting Information).

NUDT7 = target: T2, NUDT7 (Homo sapiens, UniProt P0C024); set-up: Intact protein LC/MS covalent labelling, fragments in pools of five, 200 uM each, 4 °C; settings: 24 h, 4 °C, pool of five; 200 µM; covalent
T2 construct: residues 14-235, E. coli, pNIC28-Bsa4, N-terminal His6 tag removed by TEV, construct 26672 Da
Protocol: as §1

OTUB2 (OTUB2A) = target: T3, OTUB2 (OTUB2A) (Homo sapiens, UniProt Q96DC9); set-up: Intact protein LC/MS covalent labelling, fragments in pools of five, 200 uM each, 4 °C; settings: 24 h, 4 °C, pool of five; 200 µM; covalent
T3 construct: full length residues 1-234, E. coli BL21(DE3)-R3, His tag removed by TEV, construct 27312 Da
T3 sequence (Q96DC9 1-234): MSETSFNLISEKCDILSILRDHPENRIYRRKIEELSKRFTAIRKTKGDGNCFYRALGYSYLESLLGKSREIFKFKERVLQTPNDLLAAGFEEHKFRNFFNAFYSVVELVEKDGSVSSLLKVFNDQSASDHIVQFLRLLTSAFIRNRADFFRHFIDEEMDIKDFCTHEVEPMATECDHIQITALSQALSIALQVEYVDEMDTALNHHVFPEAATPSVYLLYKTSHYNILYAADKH
Protocol: as §1

BSA = target: T4, BSA (Bos taurus, UniProt P02769); set-up: Intact protein LC/MS covalent labelling, fragments in pools of five, 200 uM each, 4 °C; settings: 24 h, 4 °C, pool of five; 200 µM; covalent
T4 construct: gene ALB
Protocol: as §1

T4 sequence (P02769 whole entry, the tested form may be a part): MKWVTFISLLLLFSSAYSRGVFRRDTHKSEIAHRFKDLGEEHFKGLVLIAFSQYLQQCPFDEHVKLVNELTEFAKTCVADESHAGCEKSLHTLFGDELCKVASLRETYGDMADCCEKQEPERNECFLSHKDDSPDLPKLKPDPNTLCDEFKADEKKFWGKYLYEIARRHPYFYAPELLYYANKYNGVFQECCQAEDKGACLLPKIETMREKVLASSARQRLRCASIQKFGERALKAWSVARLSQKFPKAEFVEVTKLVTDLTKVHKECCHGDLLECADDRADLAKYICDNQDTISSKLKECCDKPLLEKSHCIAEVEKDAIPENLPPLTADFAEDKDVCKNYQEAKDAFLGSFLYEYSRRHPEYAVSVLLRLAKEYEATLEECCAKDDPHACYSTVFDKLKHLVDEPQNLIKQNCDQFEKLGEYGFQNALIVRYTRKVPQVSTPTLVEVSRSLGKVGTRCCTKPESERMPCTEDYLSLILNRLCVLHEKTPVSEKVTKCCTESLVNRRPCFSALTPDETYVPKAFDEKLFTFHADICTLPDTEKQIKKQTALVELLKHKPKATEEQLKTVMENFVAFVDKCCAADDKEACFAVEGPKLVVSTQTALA
T1 sequence (Q92831 whole entry, the tested form may be a part): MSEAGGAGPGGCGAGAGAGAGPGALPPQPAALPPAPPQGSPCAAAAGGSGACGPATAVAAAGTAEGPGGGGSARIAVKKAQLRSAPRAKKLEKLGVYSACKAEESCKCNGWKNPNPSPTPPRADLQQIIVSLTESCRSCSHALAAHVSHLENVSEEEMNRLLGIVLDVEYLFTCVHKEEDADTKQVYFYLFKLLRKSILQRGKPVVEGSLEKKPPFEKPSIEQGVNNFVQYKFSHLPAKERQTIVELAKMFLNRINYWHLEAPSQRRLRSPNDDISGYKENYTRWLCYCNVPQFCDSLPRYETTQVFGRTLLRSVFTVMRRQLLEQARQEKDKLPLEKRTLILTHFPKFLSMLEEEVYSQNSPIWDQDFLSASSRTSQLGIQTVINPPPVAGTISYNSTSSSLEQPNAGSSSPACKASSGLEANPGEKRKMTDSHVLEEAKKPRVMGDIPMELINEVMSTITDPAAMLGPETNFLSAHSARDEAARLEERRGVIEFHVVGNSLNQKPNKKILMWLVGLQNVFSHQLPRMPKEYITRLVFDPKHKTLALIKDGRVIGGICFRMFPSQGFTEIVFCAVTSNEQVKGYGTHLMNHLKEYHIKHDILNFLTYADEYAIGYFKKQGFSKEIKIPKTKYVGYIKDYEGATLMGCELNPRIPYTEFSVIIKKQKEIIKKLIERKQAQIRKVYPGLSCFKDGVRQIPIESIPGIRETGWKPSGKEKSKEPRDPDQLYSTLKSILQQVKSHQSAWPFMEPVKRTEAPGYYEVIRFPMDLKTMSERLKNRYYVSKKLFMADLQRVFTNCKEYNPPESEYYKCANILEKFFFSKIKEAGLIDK
T2 sequence (P0C024 14-235): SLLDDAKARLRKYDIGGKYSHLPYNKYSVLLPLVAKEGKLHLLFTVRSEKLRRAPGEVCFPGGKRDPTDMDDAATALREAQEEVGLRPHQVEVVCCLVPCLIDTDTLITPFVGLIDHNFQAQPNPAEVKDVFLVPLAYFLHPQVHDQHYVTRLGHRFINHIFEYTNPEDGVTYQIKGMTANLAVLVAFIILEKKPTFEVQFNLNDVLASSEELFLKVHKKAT

| SMILES | PCAF (PCAF) | NUDT7 (NUDT7) | OTUB2 (OTUB2 (OTUB2A)) | BSA (BSA) | viability at 48 h, 10 µM (in vitro [1]) [%] | viability at 48 h, 10 µM (in vitro [2]) [%] | viability at 48 h, 10 µM (in vitro [3]) [%] |
| --- | --- | --- | --- | --- | --- | --- | --- |
| Cc1nc(NC(=O)CCl)c(Cl)cc1Cl [PCM-0102206] | 0 | 0 | 0 | 0 | 101 | 110 | 105 |
| Cc1ccc(NC(=O)CCl)cc1Cl [PCM-0102208] | 0 | 0.19 | 0.46 | 0 | 1.2 | 3.7 | 37.4 |
| O=C(CCl)Nc1cc2c(cc1Cl)OCO2 [PCM-0102209] | 0 | 0.13 | 0.27 | 0 | 47.1 | 58.1 | 70.7 |
| COc1cc(Cl)c(C)cc1NC(=O)CCl [PCM-0102210] | 0 | 0 | 0.25 | 0 | 5.5 | 8.5 | 64.1 |
| Cc1nnc(NC(=O)CCl)s1 [PCM-0102211] | 0 | 0 | 0 | 0 | 90.5 | 99.8 | 86.7 |
| CC(NC(=O)CCl)c1ccc(Cl)cc1Cl (centres unmarked) [PCM-0102212] | 0 | 0.54 | 0.18 | 0 | 37.3 | 37.4 | 58.2 |
| O=C(CCl)Nc1cc(C(F)(F)F)ccc1-n1cncn1 [PCM-0102218] | 0 | 0.28 | 0 | 0 | 17.7 | 42.2 | 63.7 |
| O=C(CCl)NC(=O)c1cccs1 [PCM-0102222] | 0 | 0 | 0 | 0.2 | 109 | 110 | 105 |
| Cc1ccc(-n2nc(C)cc2NC(=O)CCl)cc1 [PCM-0102224] | 0 | 0 | 0.35 | 0 | 24.9 | 49.3 | 67.5 |
| Cc1n[nH]c(=O)c2c(NC(=O)CCl)oc(C)c12 [PCM-0102226] | 0 | 0 | 0 | 0 | 104 | 108 | 112 |
| O=C(CCl)Nc1ccc(Br)cn1 [PCM-0102227] | 0 | 0 | 0 | 0 | 72.4 | 84.3 | 75.7 |
| CC1(NC(=O)CCl)CCS(=O)(=O)C1 (centres unmarked) [PCM-0102230] | 0 | 0 | 0 | 0 | 92.6 | 105 | 92.7 |
| CCc1nc(NC(=O)CCl)sc1C [PCM-0102231] | 0 | 0.33 | 0 | 0 | 56.5 | 61.1 | 78.9 |
| O=C(CCl)Nc1ccccc1[N+](=O)[O-] [PCM-0102232] | 0 | 0.24 | 0.2 | 0 | 73.9 | 75.4 | 81.8 |
| O=C(CCl)Nc1nc(-c2c[nH]c3ccccc23)cs1 [PCM-0102233] | 0 | 0.26 | 0.25 | 0 | 6.5 | 4.8 | 65 |
| COc1ccccc1NC(=O)CCl [PCM-0102236] | 0 | 0 | 0.28 | 0 | 58.4 | 71 | 79 |
| O=C(CCl)NNC(=O)c1ccccc1 [PCM-0102240] | 0 | 0 | 0.2 | 0 | 92.4 | 98.1 | 85.6 |
| O=C(CCl)Nc1nccs1 [PCM-0102242] | 0 | 0 | 0 | 0.17 | 70.1 | 88.3 | 79.3 |

More lines, main results first:

| PCAF (PCAF) | NUDT7 (NUDT7) | OTUB2 (OTUB2 (OTUB2A)) | BSA (BSA) | SMILES | viability at 48 h, 10 µM (in vitro [1]) [%] | viability at 48 h, 10 µM (in vitro [2]) [%] | viability at 48 h, 10 µM (in vitro [3]) [%] |
| --- | --- | --- | --- | --- | --- | --- | --- |
| 0 | 0.07 | 0 | 0 | CC1Cc2cc(S(N)(=O)=O)ccc2N1C(=O)CCl (centres unmarked) [PCM-0102207] | 16.5 | 58.7 | 34.2 |
| 0 | 0 | 0 | 0 | Cl.O=C(CCl)N1CCN(c2ccccn2)CC1 [PCM-0102213] | 81.6 | 84.5 | 94.7 |
| 0 | 0.32 | 0 | 0 | CC1CCN(C(=O)CCl)c2ccccc2S1 (centres unmarked) [PCM-0102216] | 42.4 | 77.3 | 52.4 |
| 0 | 0 | 0.14 | 0.13 | O=C(CCl)Nc1ccc(F)c(Cl)c1 [PCM-0102217] | 1.1 | 2.5 | 18.8 |
| 0 | 0 | 0 | 0 | O=C(Nc1ccccc1)C1CCN(C(=O)CCl)CC1 [PCM-0102219] | 5.6 | 5.6 | 34.2 |
| 0 | 0.05 | 0 | 0 | CS(=O)(=O)c1ccc(Cl)c(NC(=O)CCl)c1 [PCM-0102220] | 21.3 | 45.5 | 60.9 |
| 0 | 0 | 0.15 | 0 | CNC(=O)C1CN(C(=O)CCl)c2ccccc2O1 (centres unmarked) [PCM-0102221] | 53 | 82.1 | 58.1 |
| 0 | 0 | 0 | 0 | N#CC(c1cccs1)N1CCN(C(=O)CCl)CC1 (centres unmarked) [PCM-0102223] | 64.6 | 74 | 75.5 |
| 0 | 0.06 | 0 | 0 | O=C(CCl)N1CCN(S(=O)(=O)c2ccc(F)cc2)CC1 [PCM-0102237] | 66.9 | 78.8 | 77 |
| 0 | 0.23 | 0.32 | 0 | O=C(CCl)Nc1ccc(F)c([N+](=O)[O-])c1 [PCM-0102238] | 0.8 | 1 | 3.7 |
| 0 | 0.08 | 0 | 0.07 | Cl.O=C(CCl)N1CCN(c2cccc(C(F)(F)F)c2)CC1 [PCM-0102239] | 19.6 | 4.2 | 28.2 |

Reference: paper PMC6556873, “Rapid Covalent-Probe Discovery by Electrophile-Fragment Screening” (Journal of the American Chemical Society, 2019)
